These results are taken from patent US20070014788A1, “Laminin-5 modulators and uses thereof” (Novo Nordisk A/S, priority 2004, published 2007).

The labels stand for the following.
B1: TRAIL: TNF-related apoptosis-inducing ligand (protein, UniProt P50591 1-281, looked up)
Tumor necrosis factor ligand …: MAMMEVQGGPSLGQTCVLIVIFTVLLQSLCVAVTYVYFTNELKQMQDKYSKSGIACFLKEDDSYWDPNDEESMNSPCWQVKWQLRQLVRKMILRTSEETISTVQEKQQNISPLVRERGPQRVAAHITGTRGRSNTLSSPNSKNEKALGRKINSWESSRSGHSFLSNLHLRNGELVIHEKGFYYIYSQTYFRFQEEIKENTKNDKQMVQYIYKYTSYPDPILLMKSARNSCWSKDAEYGLYSIYQGGIFELKENDRIFVSVTNEHLIDMDHEASFFGAFLVG

In the experiment the test system is SW480 cells. Briefly: Cell death (LDH release) of transfected SW480 cells, alone and with anti-cancer compounds. In kind it is cell-based. The conditions noted are these: low dose of compound, 24 hours. The procedure:
SW480 cells obtained from ATCC were grown in DME:F12 supplemented with 10% foetal calf serum and routinely checked for being mycoplasma free. For transfection, the cells were seeded as 3×10^5 cells/2 ml in 6 well plates. Transfection was carried out after cells have attached at least overnight using Lipofectamin 2000 (Life Technologies). Liposomes were formed in medium without serum by mixing 10 μl lipofectamine 2000 and 3 μg plasmid DNA or 15 μl 20 pmol/μl oligonucleotide in a total volume of 250 μl. After liposome formation, the mixture was added to cells and incubated 5 hours in cell incubator before medium was changed to complete medium with serum. After 24 hours, cells were trypsinised and moved to 96 well plates to analyse for death induction.
The cells were allowed to plate for 24 hours before dosing with the indicated compounds, all in triplicate. The compounds were solubilised in DMSO and added to cells in medium with no more than 0.1% v/v DMSO. Triplicate cell cultures for basal cell death (untreated) and maximal response (complete lysis) were included as well as triplicate media samples for background determination. Cells were incubated for additional 24 hours. The maximal response (100% cell death) was induced by adding 1% v/v Triton X100 to triplicate cell cultures 5 min before medium was collected for detection of lactate dehydrogenase (LDH) activity. Medium from all samples were used in the detection of LDH using a kit from Takara Bio Inc.
Consider `C/C=C(/C)C(=O)O[C@H]1C(C)=C2[C@H]([C@@H]1OC(=O)CCCCCCC)[C@@](C)(OC(C)=O)C[C@H](OC(=O)CCC)[C@@]1(O)[C@H]2OC(=O)[C@@]1(C)O` [thapsigargin], for which the “effect of added compound on the increased cell death by siRNA against gamma2” value is given as “did not attenuate”.
As for tunicamycin, the entry is “did not attenuate”; as for `CN[C@@H]1C[C@H]2O[C@@](C)([C@@H]1OC)n1c3ccccc3c3c4c(c5c6ccccc6n2c5c31)C(=O)NC4` [staurosporine], “did not attenuate”; as for B1, “did not attenuate”.
